Read-outs that look alike come from different tables or passages of the source.
Target: human factor Xa (FXa) (Homo sapiens, UniProt P00742)
Assay: Measurement of factor Xa inhibition (chromogenic substrate)
Type: biochemical
Method: a.1) Measurement of Factor Xa Inhibition
In this case, factor Xa eliminates p-nitroaniline from the chromogenic substrate.
The test substances were dissolved in various concentrations in DMSO and incubated with human FXa (0.5 nmol/l dissolved in 50 mmol/l tris buffer [C,C,C-tris(hydroxymethyl)-aminomethane], 150 mmol/l NaCl, 0.1% BSA (bovine serum albumine), pH=8,3) at 25° C. for 10 minutes. Pure DMSO serves as control.

Sequence of human factor Xa (FXa) (P00742 235-488 limits assumed): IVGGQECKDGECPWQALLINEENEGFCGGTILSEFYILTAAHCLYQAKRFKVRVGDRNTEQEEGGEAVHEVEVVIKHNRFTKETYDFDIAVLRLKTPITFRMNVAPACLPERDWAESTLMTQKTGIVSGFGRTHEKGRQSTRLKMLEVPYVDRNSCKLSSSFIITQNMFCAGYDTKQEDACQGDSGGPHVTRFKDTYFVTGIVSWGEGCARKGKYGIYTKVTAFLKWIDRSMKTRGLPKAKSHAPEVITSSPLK
Sequence of human factor Xa (FXa) (P00742 41-179 partner limits assumed): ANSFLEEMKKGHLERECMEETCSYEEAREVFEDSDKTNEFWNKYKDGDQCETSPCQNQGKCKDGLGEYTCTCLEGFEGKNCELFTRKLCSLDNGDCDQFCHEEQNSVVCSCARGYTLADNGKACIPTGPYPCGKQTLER

SMILES	IC50 (factor Xa inhibition) [nM]	other results
O=C(NC[C@H]1CN(c2ccc(S(=O)(=O)N3CCOCC3)cc2)C(=O)O1)c1ccc(Cl)s1 [Example 38, 5-Chloro-N-({(5S)-3-[4-(4-morpholinylsulfonyl)phenyl]-2-oxo-1,3-oxazolidin-5-yl}methyl)-2-thiophenecarboxamide]	2000	–
O=C(NC[C@H]1CN(c2ccc(N3CCOCC3)c(Cl)c2)C(=O)O1)c1ccc(Cl)s1 [Example 37, 5-Chloro-N-{[(5S)-3-(3-chloro-4-morpholinophenyl)-2-oxo-1,3-oxazolidin-5-yl]methyl}-2-thiophenecarboxamide]	33	–
O=C(NC[C@H]1CN(c2ccc(N3CCS(=O)(=O)CC3)c(F)c2)C(=O)O1)c1ccc(Cl)s1 [Example 15, 5-chloro-N-({(5S)-3-[4-(1,1-dioxo-1[lambda]^6,4-thiazinan-4-yl)-3-fluorophenyl]-2-oxo-1,3-oxazolidin-5-yl}methyl)-2-thiophenecarboxamide]	210	–
NCC1CN(c2ccc(N3CCCC3=O)cc2)C(=O)O1 (stereo not shown) [Example 151, 5-(Aminomethyl)-3-[4-(2-oxo-1-pyrrolidinyl)phenyl]-1,3-oxazolidin-2-one]	2000	–
CC1(N)CCN(c2ccc(N3CC(CNC(=O)c4ccc(Cl)s4)OC3=O)cc2F)CC1 (stereo not shown) [Example 136]	–	IC50: 1200 nM
O=C(NC[C@H]1CN(c2ccc(N3CCC3=O)cc2)C(=O)O1)c1ccc(Cl)s1 [Example 164, 5-Chloro-N-({(5S)-2-oxo-3-[4-(2-oxo-1-azetidinyl)phenyl]-1,3-oxazolidin-5-yl}-methyl)-2-thiophenecarboxamide]	380	–
CC1Oc2cc(N3C[C@H](CNC(=O)c4ccc(Cl)s4)OC3=O)ccc2N(C)C1=O (stereo partly shown) [Example 50]	–	IC50 (table of Examples 48-58): 1150 nM
NC(=O)NCc1ccc(N2CC(CNC(=O)c3ccc(Cl)s3)OC2=O)cc1 (stereo not shown) [Example 154, N-{[3-(4-{[(Aminocarbonyl)amino]methyl}phenyl)-2-oxo-1,3-oxazolidin-5-yl]-methyl}-5-chloro-2-thiophenecarboxamide]	1300	–
Cc1noc(C)c1C(=O)Nc1ccc(N2CC(CNC(=O)c3ccc(Cl)s3)OC2=O)cc1 (stereo not shown) [Example 158, N-{4-[5-({[(5-Chloro-2-thienyl)carbonyl]amino}methyl)-2-oxo-1,3-oxazolidin-3-yl]phenyl}-3,5-dimethyl-4-isoxazolecarboxamide]	460	–
CC(C)(C)OC(=O)N1CC(=O)N(c2ccc(N3CC(CNC(=O)c4ccc(Cl)s4)OC3=O)cc2)C(=O)C1 (stereo not shown) [Example 165, tert-Butyl 4-{4-[5-({[(5-chloro-2-thienyl)carbonyl]amino}methyl)-2-oxo-1,3-oxazolidin-3-yl]phenyl}-3,5-dioxo-1-piperazinecarboxylate]	2000	–
O=C(NCC1CN(c2ccc(N3CCC3)c(F)c2)C(=O)O1)c1ccc(Cl)s1 (stereo not shown) [Example 132]	–	IC50: 120 nM
O=C(NCC1CN(c2ccc(-n3cccc3)cc2)C(=O)O1)c1ccc(Cl)s1 (stereo not shown) [Example 139]	–	IC50: 1700 nM
NC1CCCN(c2ccc(N3CC(CNC(=O)c4ccc(Cl)s4)OC3=O)cc2F)C1 (stereo not shown) [Example 137]	–	IC50: 44 nM
Cc1ccc(C(=O)NC[C@H]2CN(c3ccc(N4CCCC4=O)cc3)C(=O)O2)s1 [Example 57]	–	IC50 (table of Examples 48-58): 580 nM
CCN(CC)c1ccc(N2C[C@H](CNC(=O)c3ccc(Cl)s3)OC2=O)cc1 [Example 19, 5-Chloro-N-({(5S)-2-oxo-3-[4-(diethylamino)phenyl]-1,3-oxazolidin-5-yl}methyl)-2-thiophenecarboxamide]	270	–
Nc1ccc(N2CC(CNC(=O)c3ccc(Cl)s3)OC2=O)cc1 (stereo not shown) [Example 149, N-{[3-(4-Aminophenyl)-2-oxo-1,3-oxazolidin-5-yl]methyl}-5-chloro-2-thiophenecarboxamide]	2000	–
CN(C)S(=O)(=O)c1ccc(N2C[C@H](CNC(=O)c3ccc(Cl)s3)OC2=O)cc1 [Example 40, 5-Chloro-N-[((5S)-3-{4-[(dimethylamino)sulfonyl]phenyl}-2-oxo-1,3-oxazolidin-5-yl)methyl]-2-thiophenecarboxamide]	90	–
O=C(NCC1CN(c2ccc(N3CCCS3(=O)=O)cc2)C(=O)O1)c1ccc(Cl)s1 (stereo not shown) [Example 160, 5-Chloro-N-({3-[4-(1,1-dioxido-2-isothiazolidinyl)phenyl]-2-oxo1,3-oxazolidin-5-yl}methyl)-2-thiophenecarboxamide]	140	–
NC1CCN(c2ccc(N3CC(CNC(=O)c4ccc(Cl)s4)OC3=O)cc2F)C1 (stereo not shown) [Example 126]	–	IC50: 13 nM
N#Cc1cc(N2C[C@H](CNC(=O)c3ccc(Cl)s3)OC2=O)ccc1N1CCCC1 [Example 54]	–	IC50 (table of Examples 48-58): 130 nM
O=C(NC[C@H]1CN(c2ccc(N3CCCC3=O)cc2)C(=O)O1)c1ccc(Br)s1 [Example 56]	–	IC50 (table of Examples 48-58): 4 nM
O=C(NC[C@H]1CN(c2ccc(N3CCOC3=O)cc2)C(=O)O1)c1ccc(Cl)s1 [Example 55]	–	IC50 (table of Examples 48-58): 40 nM
O=C(NC[C@H]1CN(c2ccc(S(=O)(=O)N3CCC3)cc2)C(=O)O1)c1ccc(Cl)s1 [Example 39, 5-Chloro-N-({(5S)-3-[4-(1-azetidinylsulfonyl)phenyl]-2-oxo-1,3-oxazolidin-5-yl}methyl)-2-thiophenecarboxamide]	840	–

SMILES	IC50 (factor Xa inhibition) [nM]	other results
O=C(NC[C@H]1CN(c2ccc(N3CCCC3=O)c(F)c2)C(=O)O1)c1ccc(Br)s1 [Example 128]	–	IC50: 2 nM
O=C(NCC1CN(c2ccc(N3CCCC3=O)cc2)C(=O)O1)c1cccs1 (stereo not shown) [Example 41, N-({2-oxo-3-[4-(2-oxo-1-pyrrolidinyl)phenyl]-1,3-oxazolidin-5-yl}methyl)-2-thiophenecarboxamide]	1300	–
O=C(NCC1CN(c2ccc(NS(=O)(=O)CCCCl)cc2)C(=O)O1)c1ccc(Cl)s1 (stereo not shown) [Example 159, 5-Chloro-N-{[3-(4-{[(3-chloropropyl)sulfonyl]amino}phenyl)-2-oxo-1,3-oxazolidin-5-yl]methyl}-2-thiophenecarboxamide]	1700	–
O=C(NC[C@H]1CN(c2ccc(N3CCCC3)cc2)C(=O)O1)c1ccc(Cl)s1 [Example 18, 5-Chloro-N-({(5S)-2-oxo-3-[4-(1-pyrrolidinyl)phenyl]-1,3-oxazolidin-5-yl}methyl)-2-thiophenecarboxamide]	40	–
CC(=O)N(c1ccc(N2CC(CNC(=O)c3ccc(Cl)s3)OC2=O)cc1)C1CC1 (stereo not shown) [Example 98, N-[(3-{4-[Acetyl(cyclopropyl)amino]phenyl}-2-oxo-1,3-oxazolidin-5-yl)methyl]-5-chloro-2-thiophenecarboxanmide]	50	–
O=C(NC[C@H]1CN(c2ccc(N3CCCC3=O)c(F)c2)C(=O)O1)c1ccc(Cl)s1 [Example 130]	–	IC50: 3.3 nM
COCC(=O)Nc1ccc(N2CC(CNC(=O)c3ccc(Cl)s3)OC2=O)cc1 (stereo not shown) [Example 157, 5-Chloro-N-[(3-{4-[(methoxyacetyl)amino]phenyl}-2-oxo-1,3-oxazolidin-5-yl)-methyl]-2-thiophenecarboxamide]	730	–
O=C(NCC1CN(c2ccc(S(=O)(=O)N3CCCC3)cc2)C(=O)O1)c1ccc(Cl)s1 (stereo not shown) [Example 167, 5-Chloro-N-({2-oxo-3-[4-(1-pyrrolidinylsulfonyl)phenyl]-1,3-oxazolidin-5-yl}-methyl)-2-thiophenecarboxamide]	500	–
O=C(NCC1CN(c2ccc(NCCCO)cc2)C(=O)O1)c1ccc(Cl)s1 (stereo not shown) [Example 138]	–	IC50: 420 nM
O=C(NCC1CN(c2ccc(N3CCCC3=O)cc2)C(=O)O1)c1ccc(Br)s1 (stereo not shown) [Example 43, 5-Bromo-N-({2-oxo-3-[4-(2-oxo-1-pyrrolidinyl)phenyl]-1,3-oxazolidin-5-yl}methyl)-2-thiophenecarboxamide]	14	–
O=C(NC[C@H]1CN(c2ccc(N3CC[S+]([O-])CC3)c(F)c2)C(=O)O1)c1ccc(Cl)s1 [Example 14, 5-Chloro-N-({(5S)-3-[3-fluoro-4-(1-oxo-1[lambda]^4,4-thiazinan-4-yl)phenyl]-2-oxo-1,3-oxazolidin-5-yl}methyl)-2-thiophenecarboxamide]	1100	–
O=C(NCC1CN(c2ccc(C3CCCCC3)cc2)C(=O)O1)c1ccc(Cl)s1 (stereo not shown) [Example 131]	–	IC50: 850 nM
O=C(NC[C@H]1CN(c2ccc(N3CCCCC3=O)cc2)C(=O)O1)c1ccc(Br)s1 [Example 129]	–	IC50: 1 nM
NCc1ccc(N2CC(CNC(=O)c3ccc(Cl)s3)OC2=O)cc1 (stereo not shown) [Example 148, N-({3-[4-(Aminomethyl)phenyl]-2-oxo-1,3-oxazolidin-5-yl}methyl)-5-chloro-2-thiophenecarboxamide]	2200	–
CC(=O)Nc1ccc(N2CC(CNC(=O)c3ccc(Cl)s3)OC2=O)cc1 (stereo not shown) [Example 155, N-({3-[4-(Acetylamino)phenyl]-2-oxo-1,3-oxazolidin-5-yl}methyl)-5-chloro-2-thiophenecarboxamide]	1200	–
Cc1ccc(C(=O)NCC2CN(c3ccc(N4CCCC4=O)cc3)C(=O)O2)s1 (stereo not shown) [Example 42, 5-Methyl-N-({2-oxo-3-[4-(2-oxo-1-pyrrolidinyl)phenyl]-1,3-oxazolidin-5-yl}methyl)-2-thiophenecarboxamide]	160	–
CN1C(=O)COc2cc(N3C[C@H](CNC(=O)c4ccc(Cl)s4)OC3=O)ccc21 [Example 51]	–	IC50 (table of Examples 48-58): 1190 nM
O=C(NCC1CN(c2ccccc2)C(=O)O1)c1ccc(Cl)s1 (stereo not shown) [Example 96, 5-Chloro-N-[(2-oxo-3-phenyl-1,3-oxazolidin-5-yl)methyl]-2-thiophenecarboxamide]	2000	–
O=C(Nc1ccc(N2CC(CNC(=O)c3ccc(Cl)s3)OC2=O)cc1)c1cccs1 (stereo not shown) [Example 156, 5-Chloro-N-[(2-oxo-3-{4-[(2-thienylcarbonyl)amino]phenyl}-1,3-oxazolidin-5-yl)methyl]-2-thiophenecarboxamide]	1300	–
CC(C)(C)OC(=O)NC1CCCN(c2ccc(N3CC(CNC(=O)c4ccc(Cl)s4)OC3=O)cc2F)C1 (stereo not shown) [Example 135]	–	IC50: 1100 nM
O=C(NCC1CN(c2ccc(N3CCC(O)C3)c(F)c2)C(=O)O1)c1ccc(Cl)s1 (stereo not shown) [Example 133]	–	IC50: 62 nM
O=C(NC[C@H]1CN(c2ccc(N3CCOCC3=O)c(F)c2)C(=O)O1)c1ccc(Br)s1 [Example 127]	–	IC50: 0.7 nM
O=C(NC[C@H]1CN(c2ccc3c(c2)OCc2nccn2-3)C(=O)O1)c1ccc(Cl)s1 [Example 53]	–	IC50 (table of Examples 48-58): 740 nM

From patent publication US20040242660A1, “Substituted oxazolidinones for combinational therapy” (priority 2001, published 2004)
